Target: Proto-oncogene tyrosine-protein kinase Src (Homo sapiens, UniProt P12931)
Experiment: Inhibition of Src kinase in enzymatic assay

Chain of Proto-oncogene tyrosine-protein kinase Src (P12931 2-536 limits assumed): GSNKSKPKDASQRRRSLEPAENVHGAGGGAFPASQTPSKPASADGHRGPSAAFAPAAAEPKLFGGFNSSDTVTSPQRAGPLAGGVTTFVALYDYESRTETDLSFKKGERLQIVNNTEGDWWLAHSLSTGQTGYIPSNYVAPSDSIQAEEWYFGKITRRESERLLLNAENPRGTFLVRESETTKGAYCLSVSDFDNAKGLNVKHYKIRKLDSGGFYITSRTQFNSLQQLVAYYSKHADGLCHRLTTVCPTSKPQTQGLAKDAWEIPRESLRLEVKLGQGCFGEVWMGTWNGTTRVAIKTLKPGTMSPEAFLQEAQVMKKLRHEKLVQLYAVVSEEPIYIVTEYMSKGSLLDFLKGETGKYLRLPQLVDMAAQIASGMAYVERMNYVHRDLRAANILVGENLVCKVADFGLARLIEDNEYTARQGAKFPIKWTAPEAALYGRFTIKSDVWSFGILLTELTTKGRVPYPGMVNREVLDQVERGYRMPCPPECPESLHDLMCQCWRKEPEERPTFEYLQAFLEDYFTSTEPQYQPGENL

Row | Structure (SMILES) | IC50 [nM]
1 | COc1cc(Nc2c(C#N)cnc3cc(-c4ccsc4CN4CCOCC4)ccc23)c(Cl)cc1Cl | 440
2 | COc1cc(Nc2c(C#N)cnc3cc(-c4cc(CN5CCCCC5)cs4)ccc23)c(Cl)cc1Cl | 4.2
3 | COc1cc(Nc2c(C#N)cnc3cc(-c4csc(CN5CCC(O)CC5)c4)ccc23)c(Cl)cc1Cl | 1.4
4 | COc1cc(Nc2c(C#N)cnc3cc(-c4cc(CN5CCOCC5)cs4)ccc23)c(Cl)cc1Cl | 5.7
5 | COc1cc(Nc2c(C#N)cnc3cc(-c4csc(CN5CCOCC5)c4)ccc23)c(Cl)cc1Cl | 2.7
6 | COc1cc(Nc2c(C#N)cnc3cc(-c4ccc(CN5CCOCC5)s4)ccc23)c(Cl)cc1Cl | 2.5
7 | COc1cc(Nc2c(C#N)cnc3ccc(-c4csc(CN5CCOCC5)c4)cc23)c(Cl)cc1Cl | 280
8 | COc1cc(Nc2c(C#N)cnc3cc(-c4cscc4CN4CCOCC4)ccc23)c(Cl)cc1Cl | 240

Reference: ChEMBL document CHEMBL1135194, “Inhibition of Src kinase activity by 4-anilino-7-thienyl-3-quinolinecarbonitriles” (Bioorg Med Chem Lett, 2002)
